Where a name gives a salt, the structure may show the parent alone.
Tests used:
[1] = test system: male spontaneously hypertensive rat (SHR); test: Antihypertensive effects: systolic blood pressure after oral administration to SHR, tail cuff method; type: in vivo; settings: read-out: Antihypertensive effects, Maximum decrease (%)
Method: (2) Antihypertensive effects
After oral administration of the test compound dissolved in a H2 O-PEG 400 solvent mixture (H2 O:PEG 400 (w/w)=1:3) to the male spontaneously hypertensive rat (SHR), the systolic blood pressure was measured by a tail cuff method. Prior to the measurement, rats were warmed at 50° C. for five minutes.

[2] = test system: taenia caecum of guinea pig; test: Calcium antagonistic effects: relaxation of CaCl2-induced contraction of K+-depolarized taenia caecum; type: cell-based; settings: Cavia porcellus, relative to maximum relaxation by 10^-4 M papaverine, 10 mM CaCl2, 37° C., read-out: pID50 (pID50 = -log [ID50]), concentration producing 50% relaxation (converted)
Method: (1) Calcium antagonistic effects
Then, the preparation was depolarized by a K^+ rich solution (NaCl: 40 mM, KCl: 100 mM). After 10-20 minutes equilibration period, 10 mM of CaCl2 was added to the bathing solution. The contraction was produced, and then the test compound applied cumulatively.

[3] = Acute toxicity test (LD50) in mice; settings: mouse, in vivo, male ddY mice, after seven days
Method: Test 2: Acute toxicity test
ddY mice (.male., 4 weeks old) were divided into groups of five mice and the test compound dissolved in purified water was administered orally (5% solution) or intraperitoneally (1% solution) to the male ddY mice.
After seven days, LD50 values were calculated from the dead […] recorded in the individual dosage groups by the method of Litchfield-Wilcoxon.

Structure (SMILES)	EC50 [2]	inhibition in vivo at 20 mg/kg [1]	inhibition in vivo at 10 mg/kg [1]	other results
COc1ccc([C@@H]2Sc3ccccc3N(CCN(C)C)C(=O)[C@@H]2OC(C)=O)cc1 [Diltiazem, reference compound]	275 nM	–	–	inhibition in vivo at 60 mg/kg ([1]; dose 60 mg/kg): 10%
CC1=C(C(=O)OCCN(C)Cc2ccccc2)C(c2ccccc2C(F)(F)F)C(P2(=O)OC(C)CC(C)O2)=C(C)N1 (stereo not drawn) [Hydrochloride of Example 6]	4.47 nM	–	–	LD50 at 168 h ([3]; ip, i.p. (1% solution)): 17 mg/kg; LD50 at 168 h ([3]; po, p.o. (5% solution)): 53 mg/kg; inhibition in vivo at 5 mg/kg ([1]; dose 5 mg/kg): 37%
CC1=C(C(=O)OCCN(C)Cc2ccccc2)C(c2cccc(Cl)c2)C(P2(=O)OC(C)CC(C)O2)=C(C)N1 (stereo not drawn) [Hydrochloride of Example 7]	5.5 nM	49%	–	LD50 at 168 h ([3]; ip, i.p. (1% solution)): 23 mg/kg; LD50 at 168 h ([3]; po, p.o. (5% solution)): 74 mg/kg
CC1=C(C(=O)OCCN2CCN(C(c3ccccc3)c3ccccc3)CC2)C(c2cccc([N+](=O)[O-])c2)C(P2(=O)OC(C)CC(C)O2)=C(C)N1 (stereo not drawn) [Hydrochloride of Example 9]	29.5 nM	36%	–	–
CC1=C(C(=O)OCCN2CCN(C(c3ccccc3)c3ccccc3)CC2)C(c2ccccc2C(F)(F)F)C(P2(=O)OC(C)CC(C)O2)=C(C)N1 (stereo not drawn) [Hydrochloride of Example 10]	57.5 nM	46%	–	–
CC1=C(C(=O)OCCN2CCN(C(c3ccccc3)c3ccccc3)CC2)C(c2ccccc2Cl)C(P2(=O)OC(C)CC(C)O2)=C(C)N1 (stereo not drawn) [Hydrochloride of Example 11]	24.5 nM	–	29%	–
CC1=C(C(=O)OCCN(C)Cc2ccccc2)C(c2cccc([N+](=O)[O-])c2)C(P2(=O)OCCC(C)O2)=C(C)N1 (stereo not drawn) [Hydrochloride of Example 12]	2.57 nM	–	18%	–
CC1=C(C(=O)OCCN(C)Cc2ccccc2)C(c2cccc(Cl)c2)C(P2(=O)OCCC(C)O2)=C(C)N1 (stereo not drawn) [Hydrochloride of Example 14]	3.02 nM	–	14%	–
CC1=C(C(=O)OCCN(C)Cc2ccccc2)C(c2cccc([N+](=O)[O-])c2)C(P2(=O)OCC(C)(C)CO2)=C(C)N1 (stereo not drawn) [Hydrochloride of Example 16]	3.55 nM	–	21%	–
CC1=C(C(=O)OCCN(C)Cc2ccccc2)C(c2ccccc2C(F)(F)F)C(P2(=O)OCC(C)(C)CO2)=C(C)N1 (stereo not drawn) [Hydrochloride of Example 17]	4.27 nM	42%	–	–
CC1=C(C(=O)OCCN(C)Cc2ccccc2)C(c2cccc(Cl)c2)C(P2(=O)OCC(C)(C)CO2)=C(C)N1 (stereo not drawn) [Hydrochloride of Example 18]	4.47 nM	–	17%	–
COC(=O)C1=C(C)NC(C)=C(P2(=O)OCCC(C)O2)C1c1ccccc1C(F)(F)F (stereo not drawn) [Hydrochloride of Example 20]	2.04 nM	32%	–	–
COC(=O)C1=C(C)NC(C)=C(P2(=O)OC(C)CC(C)O2)C1c1ccccc1C(F)(F)F (stereo not drawn) [Hydrochloride of Example 21]	1.91 nM	35%	–	–
COC(=O)C1=C(C)NC(C)=C(C(=O)OCCN(C)Cc2ccccc2)C1c1cccc([N+](=O)[O-])c1 (stereo not drawn) [Nicardipine, reference compound]	0.417 nM	34%	–	LD50 at 168 h ([3]; ip, i.p. (1% solution)): 166 mg/kg; LD50 at 168 h ([3]; po, p.o. (5% solution)): 561 mg/kg
COC(=O)C1=C(C)NC(C)=C(C(=O)OC)C1c1ccccc1[N+](=O)[O-] [Nifedipine, reference compound]	2.88 nM	–	26%	–

Further lines, with some results ahead:

EC50 [2]	Structure (SMILES)	inhibition in vivo at 20 mg/kg [1]	inhibition in vivo at 10 mg/kg [1]	other results
7.08 nM	CC1=C(C(=O)OCCN(C)Cc2ccccc2)C(c2cccc([N+](=O)[O-])c2)C(P2(=O)OC(C)CCC(C)O2)=C(C)N1 (stereo not drawn) [Hydrochloride of Example 1]	50%	–	–
5.89 nM	CC1=C(C(=O)OCCN(C)Cc2ccccc2)C(c2ccccc2C(F)(F)F)C(P2(=O)OC(C)CCC(C)O2)=C(C)N1 (stereo not drawn) [Hydrochloride of Example 2]	45%	–	–
3.98 nM	CC1=C(C(=O)OCCN(C)Cc2ccccc2)C(c2cccc(Cl)c2)C(P2(=O)OC(C)CCC(C)O2)=C(C)N1 (stereo not drawn) [Hydrochloride of Example 3]	–	15%	–
4.9 nM	CC1=C(C(=O)OCCN(C)Cc2ccccc2)C(c2ccccc2Cl)C(P2(=O)OC(C)CCC(C)O2)=C(C)N1 (stereo not drawn) [Hydrochloride of Example 4]	–	15%	–
2.45 nM	CC1=C(C(=O)OCCN(C)Cc2ccccc2)C(c2cccc([N+](=O)[O-])c2)C(P2(=O)OC(C)CC(C)O2)=C(C)N1 (stereo not drawn) [Hydrochloride of Example 5]	50%	–	–
2.82 nM	CC1=C(C(=O)OCCN(C)Cc2ccccc2)C(c2ccccc2Cl)C(P2(=O)OC(C)CC(C)O2)=C(C)N1 (stereo not drawn) [Hydrochloride of Example 8]	–	47%	–
12.3 nM	CC1=C(C(=O)OCCN(C)Cc2ccccc2)C(c2ccccc2C(F)(F)F)C(P2(=O)OCCC(C)O2)=C(C)N1 (stereo not drawn) [Hydrochloride of Example 13]	–	39%	–
3.24 nM	CC1=C(C(=O)OCCN(C)Cc2ccccc2)C(c2ccccc2Cl)C(P2(=O)OCCC(C)O2)=C(C)N1 (stereo not drawn) [Hydrochloride of Example 15]	–	38%	–
5.13 nM	CC1=C(C(=O)OCCN(C)Cc2ccccc2)C(c2ccccc2Cl)C(P2(=O)OCC(C)(C)CO2)=C(C)N1 (stereo not drawn) [Hydrochloride of Example 19]	–	30%	–

Reference: patent US4576934A, “Antihypertensive dihydropyridine-5-phosphonic acid cyclic esters” (Nissan Chemical Industries Ltd., priority 1983, dated 1986)
